Results from patent US4650811A, “Ethenylphenol-indoles having antiarythmic utility” (Roussel Uclaf, priority 1984, dated 1987).

How the values were obtained:
α2 - adrenergic receptor = α2 - adrenergic receptor affinity (3H rauwolscine displacement, rat cortices); type: binding; settings: ARL=100 CD/CX relative to phentolamine, 25° C., 45 minutes
Experimental: 10 cortices removed from the brains of male rats weighing on the average […] were homogenized in 90 ml of 0.32 M sucrose and after centrifuging the homogenized mixture at 1,000 g for 10 minutes at 0° C., the supernatant was centrifuged at 30,000 g for 10 minutes at 0° C. to +4° C. The residue was suspended in 240 ml of Tris HCl 50 mM buffer, pH 7.7 and centrifuged at 30,000 g for 15 minutes at 0° to +4° C. The new residue obtained was suspended in 480 ml of NaKPO4 50 mM buffer, pH 7.4. Then, 2 ml of suspension were incubated for 45 minutes at 25° C. in the presence of ^3 H rauwolscine at a concentration of […]:
(§1) (ii) with increasing concentrations of the product under test, or
(iii) to determine the non-specific fixation, with non-radioactive phentolamine at a concentration of 10^-5 M.
The incubated suspensions were filtered on Whatman GF/C and the filters were washed three times with 5 ml of NaKPO4 buffer, pH 7.4, at 0° C. The radio-activity of the filters was measured by liquid scintillation. The affinity of the product under test for the α2 - adrenergic receptors were given relative to phentolamine as reference product. CD=concentration of phentolamine inhibiting 50% of the specific fixation of ^3 H rauwolscine:
CX=concentration of the product under test inhibiting 50% of the specific fixation of ^3 H rauwolscine.

β2 - adrenergic receptor = molecular target: T1, β2 - adrenergic receptor (Rattus norvegicus, UniProt P10608); assay: β2 - adrenergic receptor affinity (3H dihydroalprenolol displacement, rat cerebelli); type: binding; settings: ARL=100 CD/CX relative to propranolol; 3H dihydroalprenolol 10^-9 M, 37° C., 10 minutes
T1 construct: The cerebelli removed from the brains of male rats; from tissue; host or cells: rat cerebellum, membrane preparation
Experimental: The cerebelli removed from the brains of male rats weighing on the average 150 g were homogenized in 90 ml of 0.32 M sucrose and after centrifuging the homogenized mixture at 1,000 g for 20 minutes at 0° C., the supernatant was centrifuged at 30,000 g for 15 minutes at 0° C. to +4° C. The residue was suspended in 120 ml of Tris HCl 50 mM buffer pH 7.7, and centrifuged at 30,000 g for 15 minutes at 0° to +4° C. The new residue obtained was suspended in 480 ml of Krebs Tris HCl buffer, pH 7.7. 2 ml of the suspension were then incubated at 37° C. for 10 minutes in the presence of 3H dihydroalprenolol at a concentration of 10^-9 M:
(ii) with increasing concentrations of the product under test
(iii) to determine the non-specific fixation, with non-radio-active propranolol at a concentration of 10^-5 M. The incubated suspensions were filtered on Whatman GF/C and the filters were washed three times with 5 ml of Krebs Tris HCl buffer pH 7.7 at 0° C.
The radio-activity of the filters was measured by liquid scintillation. The affinity of the test product for β2 - adrenergic receptors was given relative to propranolol as reference product.
CD=concentration of propranolol inhibiting 50% of the specific fixation of ^3 H dihydroalprenolol:
CX=concentration of the product under test inhibiting 50% of the specific fixation of the ^3 H dihydroalprenolol.

Rat caudal arteries = assay: Anti-calcic activity in vitro: inhibition of K+-depolarized, Ca2+-induced contraction of rat caudal arteries; settings: rat caudal artery, depolarized with 100 mM K+, Ca2+ 0.1 to 3.0 mM, 37° C.
Experimental: Rat caudal arteries were cut into a spiral and were attached to tension sensors and were kept in tanks of […] of Krebs buffer-sodium bicarbonate (NaCl: 120.8 mM, KCl: 5.9 mM, MgCl2 : 1.2 mM, NaH2 PO4 : 1.2 mM, NaHCO3 : 15.5 mM, glucose: 12.6 mM) at 37° C. gassed with a mixture of O2 : 95% - CO2 : 5%. The preparations were depolarized with a buffer solution with a concentration of 100 mM in K^+ ions (NaCl: 26.7 mM, KCl: 100 mM, MgCl2 : 1.2 mM, NaH2 PO4 : 1.2 mM, NaHCO3 : 15.5 mM, glucose: 12.6 mM). Calcium chloride was added in a volume of 250 μ1 to obtain a range of increasing concentrations of Ca^2+ ions from 0.1 to 3.0 mM. The contractions of the arteries were recorded and a control range was established in this way. The operation was repeated every 15 minutes with the Ca^2+ range of ions and the preparation was washed four times after each range.
When a stable response had been obtained, the operation with the range of Ca^2+ ions was carried out in the presence of different concentrations of the product under test until a stable response was obtained. The contractions of the arteries depend on the entry of the Ca^2+ ions into the cells of the smooth muscles and are caused by the depolarization of the smooth muscle by the K^+ ions and by the action of the noradrenaline liberated at the presynaptic level. By repeating the operation with the arteries denervated by the action of 6-OH dopamine, the specific action due to the noradrenaline was suppressed.

mice = assay: Acute toxicity after oral administration to mice; type: in vivo
Experimental: The lethal doses LD0 for the different test compounds were evaluated after oral administration to mice and the maximum dose not causing any mortality in 8 days was called LD0.

β1 - adrenergic receptor = molecular target: T2, β1 - adrenergic receptor (Rattus norvegicus, UniProt P18090); assay: β1 - adrenergic receptor affinity (3H dihydroalprenolol displacement, rat cortices); type: binding; settings: ARL=100 CD/CX relative to propranolol; 3H dihydroalprenolol 10^-9 M, 37° C., 10 minutes
T2 construct: 10 cortices removed from the brains of rats; from tissue; host or cells: rat brain cortex, membrane preparation
Experimental: 10 cortices removed from the brains of rats weighing on the average 150 g were homogenized in 90 ml of 0.32 M sucrose and after centrifuging the homogenized mixture at 1,000 g for 20 minutes at 0° C., the supernatant was centrifugated at 30,000 g for 15 minutes at 0° C. to +4° C. The residue was suspended in 120 ml of Tris HCl 50 mM buffer pH 7.7 and centrifuged at 30,000 g for 15 minutes at 0° C. to +4° C. The new residue obtained was suspended in 480 ml of Krebs Tris HCl 50 mM buffer, 7.7 pH. Then, 2 ml of the suspension were incubated for 10 minutes at 37° C. in the presence of ^3 H dihydroalprenolol at a concentration of 10^-9 M:
as §1
(iii) to determine the non-specific fixation, with non-radioactive propranolol at a concentration of 10^-5 M.
The incubated suspensions were filtered on Whatman GF/C and the filters were washed three times with 5 ml of Krebs Tris HCl buffer pH 7.7 at 0° C. The radio-activity of the filters was measured by liquid scintillation. The affinity of the product for the adrenergic receptors was given relative to propranolol as reference product,
CD=concentration of propranolol inhibiting 50% of the specific fixation of the ^3 H dihydroalprenolol: CX=concentration of the product under test inhibiting 50% of the specific fixation of the ^3 H dihydroalprenolol.

[1] = tested on: arterial pressure of male rats of Wistar strain; assay: Hypotensive activity (carotid arterial pressure in anesthetized rats); type: in vivo, rat (Wistar); settings: 1 mg/Kg, intravenous, vs initial control arterial pressure
Experimental: The hypotensive activity was studied on male rats of Wistar strain weighing about 300 g and anesthetized with 50 mg/Kg by intravenous route of sodium pentobarbital. The product tested was administered by intravenous route in the jugular vein and the pressure in the carotid artery was measured before and after administration of the product tested. The following table reports the variations expressed in percentage of the arterial pressure after administration of the product tested by comparison with the initial control arterial pressure.

[2] = tested on: disorders of the cardiac rhythm (aconitine) in rats; assay: Anti-arrhythmic activity in rats (aconitine-induced disorders of the cardiac rhythm); type: in vivo, rat; settings: intravenous, aconitine 10 μg/min five minutes after product, in comparison with controls
Experimental: Male rats weighing 300-350 g anesthetized by intraperitoneal route with 1.20 g/Kg of urethane were tracheotomized and submitted to artifical respiration (40-50 insufflations of 3 ml/minute). Needles were implanted sub-cutaneously to record the electro-cardiogram of the rats on the signal in derivation DII. The products under test were administered by intravenous route.
Five minutes after the product was administered, the jugular vein of the rats was perfused with 10 μg/min. of an aconitine solution and the time of appearance of disorders of the cardiac rhythm was noted. The results were expressed in percentage of the extension of the time of appearance of disorders of the cardiac rhythm in comparison with controls and as a function of the dose of the product under test.

T2 sequence (P18090 whole entry): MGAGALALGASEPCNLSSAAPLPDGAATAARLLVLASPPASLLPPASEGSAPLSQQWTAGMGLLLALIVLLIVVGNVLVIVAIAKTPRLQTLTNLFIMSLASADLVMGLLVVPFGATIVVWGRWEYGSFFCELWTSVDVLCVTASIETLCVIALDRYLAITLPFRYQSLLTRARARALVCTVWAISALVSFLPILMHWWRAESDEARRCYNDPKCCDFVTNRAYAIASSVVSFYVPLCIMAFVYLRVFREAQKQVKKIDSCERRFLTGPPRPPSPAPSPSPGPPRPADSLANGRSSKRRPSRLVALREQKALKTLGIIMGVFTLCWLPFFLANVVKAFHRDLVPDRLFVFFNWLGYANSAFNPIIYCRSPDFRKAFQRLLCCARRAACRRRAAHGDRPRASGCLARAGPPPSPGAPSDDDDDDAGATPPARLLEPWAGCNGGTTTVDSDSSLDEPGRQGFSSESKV
T1 sequence (P10608 whole entry): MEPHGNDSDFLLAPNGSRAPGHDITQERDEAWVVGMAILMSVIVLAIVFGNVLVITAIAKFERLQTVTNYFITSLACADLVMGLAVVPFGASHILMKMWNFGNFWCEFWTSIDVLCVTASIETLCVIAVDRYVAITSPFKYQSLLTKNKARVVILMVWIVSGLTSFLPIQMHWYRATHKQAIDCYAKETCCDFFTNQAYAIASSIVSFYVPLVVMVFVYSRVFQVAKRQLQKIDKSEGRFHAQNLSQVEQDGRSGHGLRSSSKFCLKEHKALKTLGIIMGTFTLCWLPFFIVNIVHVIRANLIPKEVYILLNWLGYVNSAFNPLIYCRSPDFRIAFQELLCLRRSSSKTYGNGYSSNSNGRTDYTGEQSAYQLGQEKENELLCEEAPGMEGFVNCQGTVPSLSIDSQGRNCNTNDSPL

| SMILES | ARL (relative affinity) (α2 - adrenergic receptor) [%] | ARL (relative affinity) (β2 - adrenergic receptor) [%] | IC50 (Rat caudal arteries) [µM] | LD0 (maximum dose not causing any mortality in 8 days) (mice) [mg/kg] | ARL (relative affinity) (β1 - adrenergic receptor) [%] | % Variation of the arterial pressure ([1]; 1 min. after administration) [%] | % Variation of the arterial pressure ([1]; 5 min. after administration) [%] | % Variation of the arterial pressure ([1]; 10 min. after administration) [%] | % Variation of the arterial pressure ([1]; 30 min. after administration) [%] | Percentage of extension of time of appearance of disorders of the cardiac rhythm ([2]; 5 mg/Kg) [%] | Percentage of extension of time of appearance of disorders of the cardiac rhythm ([2]; 10 mg/Kg) [%] |
| --- | --- | --- | --- | --- | --- | --- | --- | --- | --- | --- | --- |
| CC(C)NCC(O)COc1ccccc1/C=C/c1cccc2[nH]ccc12 (stereo not drawn) [Example 1, 1-[2-[2-(1H-indol-4-yl)-ethenyl]-phenoxy]-3-[isopropyl-amino]-2-propanol] | 0.1 | 18 | 4 | > 100 | 92.5 | -11 | -11 | -12 | -13 |  |  |
| CC(C)(C)NCC(O)COc1ccccc1/C=C/c1cccc2[nH]ccc12 (stereo not drawn) [Example 2, 1-[(1,1-dimethylethyl)-amino]-3-[2-[2-(1H-indol-4-yl)-ethenyl]-phenoxy]-2-propanol] |  | 172 | 1.2 | > 100 | 198 | -17 | -10 | -10 | -14 | 30 | 110 |
| CC(C)(C)NCC(O)COc1ccc(/C=C/c2cccc3[nH]ccc23)cc1 (stereo not drawn) [Example 3, 1-[(1,1-dimethylethyl)-amino]-3-[4-[2-(1H-indol-4-yl)-ethenyl]-phenoxy]-2-propanol] | 0.7 | 0.1 | 0.6 | > 100 | 0.8 |  |  |  |  |  |  |
| CC(C)NCC(O)COc1ccc(/C=C/c2cccc3[nH]ccc23)cc1 (stereo not drawn) [Example 4] | 0.0 | 0.03 | 3.5 | 60 | 1.0 |  |  |  |  |  |  |
| CC(C)(C)NCC(O)COc1ccc(/C=C/c2cccc3c2CC(=O)N3)cc1 (stereo not drawn) [Example 5, 1,3-dihydro-4-[2-[4-[3-[(1,1-dimethylethyl)-amino]-2-hydroxypropoxy]-phenyl]-ethenyl]-2H-indol-2-one] |  |  | 2.5 | > 100 |  |  |  |  |  |  |  |
| CC(C)(C)NCCCOc1ccccc1/C=C/c1cccc2[nH]ccc12 [Example 6, N-(1,1-dimethylethyl)-3-[2-[2-(1H-indol-4-yl)-ethenyl]-phenoxy]-propanamine] |  |  | 2 | > 400 |  |  |  |  |  | 49 |  |
| CC(C)(C)NCC(O)COc1ccccc1CCc1cccc2[nH]ccc12 (stereo not drawn) [Example 8, 1-[(1,1-dimethylethyl)-amino]-3-[2-[2-(1H-indol-4-yl)-ethyl]-phenoxy]-2-propanol] |  |  | 1.5 | > 400 |  |  |  |  |  | 162 |  |
| CC(C)(C)NCC(O)COc1ccccc1/C=C/c1cccc2c1CC(=O)N2 (stereo not drawn) [Example 9, 1,3-dihydro-4-[2-[2-[3-[(1,1-dimethylethyl)-amino]-2-hydroxypropoxy]-phenyl]-ethenyl]-2H-indol-2-one] |  |  | 1.4 |  |  |  |  |  |  | 167 |  |
| CC(C)(C)NCCOc1ccccc1/C=C/c1cccc2[nH]ccc12 [Example 11, N-(1,1-dimethylethyl)-2-[2-[2-(1H-indol-4-yl)-ethenyl]-phenoxy]-ethanamine (trans E)] |  |  |  | 200 |  |  |  |  |  | 41 |  |
| CC(C)(C)NCCCOc1ccccc1CCc1cccc2[nH]ccc12 [Example 12, N-(1,1-dimethylethyl)-3-[2-[2-(1H-indol-4-yl)-ethyl]-phenoxy]-propanamine] |  |  | 0.3 |  |  |  |  |  |  |  |  |
